System: male Lewis rats, adjuvant induced arthritis
Assay: AIA model of inflammation (paw swelling)
Type: in vivo
Settings: rat AIA; all 3 doses tested (1, 3, and 10 mg/kg) oral once daily 4 days; P < 0.05 by Dunnett's test
Protocol: For the monoiodoacetate (MIA) and adjuvant induced arthritis (AIA) studies, male Lewis rats (Envigo, Indianapolis, IN) of approximately 8 weeks of age at the time of disease induction were used. For collagen induced arthritis studies (CIA) female Lewis rats (Charles River) weighing 150–170 g were used. Rats were housed in groups of 2 or 3 per cage and maintained in a constant temperature, and on a 12 h light/12 h dark cycle. Animals had free access to food and water at all times except during data collection.
On Day 0, paw widths of both right and left paws were measured between the lateral and dorsal surfaces using calipers, and a mean paw thickness for each rat was calculated by averaging these measurements. Rats were then inoculated intradermally with 0.25 mg of adjuvant (M. Tuberculosis H37 RA from Difco) in 100 μL of mineral oil at the base of the tail to induce adjuvant disease. Eleven days post inoculation paw widths of both right and left paws were measured again, and the percent change from the Day 0 reading was calculated. […] On the fifth day after dosing started (day 15 post adjuvant injection) the rats were euthanized without further dosing and paw width measured again. The percent increase in mean paw thickness from day 11 to day 15 was then calculated as a measure of paw swelling which is indicative of the amount of inflammation in the paws measured. […]

**Q.** `C[C@H](NC(=O)[C@H]1CCCCN1CCOc1ccccc1)c1ccc(C(=O)O)cc1` [Compound 2] was tested. Which “increases in paw inflammation (swelling) compared to vehicle” value did it give?
**A.** significantly inhibited

— PMC5464344, “Analgesic and anti‐inflammatory properties of novel, selective, and potent EP4 receptor antagonists” (Pharmacology Research & Perspectives, 2017)
